Where two headings read alike, the source gives them in different places.
Experiments:
mouse bone marrow cell = conditions: 60 mg/kg positive control; for Number of Micronucleus-containing PCEs: 5000 PCEs tested
Experimental: The mice were given the samples every 24 h. […] They were executed at 6 h after the last gavage of sample, with the sternal bone marrow taken, prepared into slides, fixed in methanol and stained with Giemsa.
3.4.3 Outcome measure: During the microscopy, 1,000 polychromatic erythrocytes (PCE) were counted for each animal to calculate the micronucleus rate (MN‰).

Kunming mice = experiment: Length of sodium pentobarbital-induced sleep of mice with medicinal insomnia (ephedrine, prednisone); format: in vivo; conditions: sodium pentobarbital 50 mg/kg ip
Experimental: Kunming mice, male, 18-22 g in weight;
60 mice were taken and placed into the laboratory for one week for acclimatization. Then they were randomly divided into 6 groups and dosed according to the drug and dosage in the table.
The investigational drug and insomnia-induced drugs were proportionally prepared into soybean oil solutions as investigational products, which were administered with via intragastric gavage with the intragastric volume calculated by 0.1 mL per 10 g body weight. The blank group was directly given soybean oil via intragastric gavage once daily, for consecutive 7 days. Mice were fasted at 8 h prior to the last dosing and given sodium pentobarbital (50 mg/kg) via intraperitoneal injection at 30 min after dosing, at the indoor temperature of 20° C. and the humidity of 40%. Measurements were made by using the righting reflex tester, the absence of righting reflex over 1 min was deemed as falling asleep, and the absence time and recovery time of righting reflex were observed and recorded. The duration from the absence of righting reflex to its recovery was the length of sleep.

mouse sperm = experiment: Mouse sperm malformation test; conditions: 2.0 mg/kg positive control
[1] = GC fingerprint: study on the sample stability; format: physicochemical; conditions: Semen Ziziphi Spinosae oil sample 2 test solution; for Relative peak area, RSD (%) / Relative retention time, RSD (%): RSD over 0-12 h; for Relative peak area, Mean / Relative retention time, Mean: mean over 0-12 h; for Relative peak area, standing time 0 / Relative retention time, standing time 0: tested at 0 h; for Relative peak area, standing time 0 / Relative retention time, standing time 0 / Relative peak area, standing time 3 / Relative retention time, standing time 3 / Relative peak area, standing time 6 / Relative retention time, standing time 6 / Relative peak area, standing time 9 / Relative retention time, standing time 9 / Relative peak area, standing time 12 / Relative retention time, standing time 12: GC; for Relative peak area, standing time 3 / Relative retention time, standing time 3: tested at 3 h; for Relative peak area, standing time 6 / Relative retention time, standing time 6: tested at 6 h; for Relative peak area, standing time 9 / Relative retention time, standing time 9: tested at 9 h; for Relative peak area, standing time 12 / Relative retention time, standing time 12: tested at 12 h
Experimental: Take 0.4 g of test sample, place into a 50 mL flask, add 6 mL of sodium hydroxide-methanol solution, and then connect with condenser water bath, and recirculate until the oil drops disappear, and slowly shake the flask every 30 sec to avoid solids formed by sodium hydroxide from being adhered onto the flask wall; recirculate 10 min, add 7 mL of boron trifluoride-methanol solution into the boiled solution through the top of the condenser using a pipette, boil for another 3 min, add 5 mL of isooctane into the boiling mixed solution through the top of the condenser, remove the condenser, take out the flask, add in 20 mL of sodium chloride solution immediately, plug the flask, shake the flask violently for 15 sec, transfer the mixed solution into a 150 mL separatory funnel, rinse the flask with 10 mL of isooctane solution twice (5 mL each time), merge the washing liquid into the separatory funnel, let the funnel stand still to stratify the solution, abandon the subnatant water liquid, place the supernatant isooctane solution into a 25 mL flask, fix the volume using isooctane, add a proper amount of sodium sulfate anhydrous to absorb the trace amount of water in the solution, shake the flask well and put aside for subsequent use.
GC: PerKinElmer Clarus 680
Chromatographic column: Agilent J&W Scientific DB-WAX quartz capillary column ([…]×0.32 mm, 0.25 μm)
Injector temperature: 270° C.,
Precisely draw 1 μL standard solution and 1 μL test solution into the gas chromatograph and conduct the test.
Semen Ziziphi Spinosae oil sample 2 was taken and prepared into test solution according to the preparation method under the item “3. Preparation of test article solution”, and the resulting test solution was tested at different time points (0 h, 3 h, 6 h, 9 h and 12 h) according to the experimental conditions under the item “4. Gas chromatographic conditions”.

SMILES	Relative peak area, RSD (%) [1] [%]	Relative retention time, RSD (%) [1] [%]	Relative peak area, Mean [1]	Relative retention time, Mean [1]	Relative peak area, standing time 0 [1]	Relative retention time, standing time 0 [1]	Relative peak area, standing time 3 [1]	Relative retention time, standing time 3 [1]	Relative peak area, standing time 6 [1]	Relative retention time, standing time 6 [1]	Relative peak area, standing time 9 [1]	Relative retention time, standing time 9 [1]	Relative peak area, standing time 12 [1]	Relative retention time, standing time 12 [1]	other results
O=P1(N(CCCl)CCCl)NCCCO1 (stereo not drawn) [Cyclophosphamide, cyclophosphamide]	–	–	–	–	–	–	–	–	–	–	–	–	–	–	Micronucleus-Cell Rate (mouse bone marrow cell; Female mice): 24.6 ± 6.3 ‰; PCE/RBC (mouse bone marrow cell; Female mice): 1.07 ± 0.13; Number of Micronucleus-containing PCEs (mouse bone marrow cell; Female mice): 123; Micronucleus-Cell Rate (mouse bone marrow cell; Male mice): 27.6 ± 10.4 ‰; PCE/RBC (mouse bone marrow cell; Male mice): 1.21 ± 0.14; Number of Micronucleus-containing PCEs (mouse bone marrow cell; Male mice): 138
CN[C@@H](C)[C@H](O)c1ccccc1 [Ephedrine, ephedrine]	–	–	–	–	–	–	–	–	–	–	–	–	–	–	Length of Sleep (Kunming mice; Ephedrine 4 mg/kg alone ig 7 days): 60.8 ± 25.3 min
CO[C@@]12[C@H](COC(N)=O)C3=C(C(=O)C(C)=C(N)C3=O)N1C[C@@H]1N[C@@H]12 [Mitomycin C, mitomycin C]	–	–	–	–	–	–	–	–	–	–	–	–	–	–	Abnormal Rate (mouse sperm): 5.88 ± 0.97 %; Number of Aberrant Sperm: Amorphous (mouse sperm; 5000 sperm tested): 119 n; Number of Aberrant Sperm: Banana (mouse sperm; 5000 sperm tested): 23 n; Number of Aberrant Sperm: Big head (mouse sperm; 5000 sperm tested): 5 n; Number of Aberrant Sperm: Folded (mouse sperm; 5000 sperm tested): 24 n; Number of Aberrant Sperm: Hook-free (mouse sperm; 5000 sperm tested): 113 n; Number of Aberrant Sperm: Subtotal (mouse sperm; 5000 sperm tested): 294 n; Number of Aberrant Sperm: Two-head/two-tail (mouse sperm; 5000 sperm tested): 10 n
CC/C=C\C/C=C\C/C=C\CCCCCCCC(=O)OC [Peak 5]	1.57	0.04	0.009	1.1834	0.009	1.184	0.009	1.184	0.009	1.184	0.009	1.183	0.009	1.183	–
CCCCCCCCCCCCCCCCCCCC(=O)OC [Peak 8]	1.16	0.03	0.023	1.3064	0.023	1.307	0.023	1.307	0.023	1.306	0.023	1.306	0.023	1.306	–
CCCCCCCCCCCCCCCCCCCCCC(=O)OC [Peak 11]	1.65	0.08	0.020	1.6532	0.020	1.655	0.021	1.654	0.021	1.653	0.021	1.651	0.021	1.653	–
CCCCCCCC/C=C\CCCCCCCC(=O)OC [Peak s]	0.00	0.00	1.000	1.0000	1.000	1.000	1.000	1.000	1.000	1.000	1.000	1.000	1.000	1.000	–
C[C@]12C=CC(=O)C=C1CC[C@@H]1[C@@H]2C(=O)C[C@@]2(C)[C@H]1CC[C@]2(O)C(=O)CO [Prednisone, prednisone]	–	–	–	–	–	–	–	–	–	–	–	–	–	–	Length of Sleep (Kunming mice; Prednisone 1 mg/kg alone ig 7 days): 68.4 ± 27.1 min

Source: patent publication US10881704B2, “Usage of semen Ziziphi spinosae oil in the treatment of medicinal insomnia” (SHIJIAZHUANG YILING PHARMACEUTICAL CO., LTD., priority 2016, dated 2021)
